The assay deals with Rv3066–IR1. It counts as binding, Mycobacterium tuberculosis. The settings on record: 1 µM ethidium versus no ethidium.

We go through one compound from article PMC3467072 (Nucleic Acids Research, 2012).

Consider `CC[n+]1c(-c2ccccc2)c2cc(N)ccc2c2ccc(N)cc21` [ethidium, ethidium bromide], for which the “Weakening of the binding affinity between Rv3066 and IR1” value came to 2.4 times.
